The source of these data is paper PMC7594025, “Synthesis, Docking, 3-D-Qsar, and Biological Assays of Novel Indole Derivatives Targeting Serotonin Transporter, Dopamine D2 Receptor, and Mao-A Enzyme: In the Pursuit for Potential Multitarget Directed Ligands” (Molecules, 2020).

For one series, the target named is T1, rat MAO-A (Rattus norvegicus, UniProt P21396).
T1 construct: using a crude rat brain mitochondrial suspension as a source of enzyme; from tissue; host or cells: rat brain (crude mitochondrial suspension)
T1 sequence (P21396 1-526): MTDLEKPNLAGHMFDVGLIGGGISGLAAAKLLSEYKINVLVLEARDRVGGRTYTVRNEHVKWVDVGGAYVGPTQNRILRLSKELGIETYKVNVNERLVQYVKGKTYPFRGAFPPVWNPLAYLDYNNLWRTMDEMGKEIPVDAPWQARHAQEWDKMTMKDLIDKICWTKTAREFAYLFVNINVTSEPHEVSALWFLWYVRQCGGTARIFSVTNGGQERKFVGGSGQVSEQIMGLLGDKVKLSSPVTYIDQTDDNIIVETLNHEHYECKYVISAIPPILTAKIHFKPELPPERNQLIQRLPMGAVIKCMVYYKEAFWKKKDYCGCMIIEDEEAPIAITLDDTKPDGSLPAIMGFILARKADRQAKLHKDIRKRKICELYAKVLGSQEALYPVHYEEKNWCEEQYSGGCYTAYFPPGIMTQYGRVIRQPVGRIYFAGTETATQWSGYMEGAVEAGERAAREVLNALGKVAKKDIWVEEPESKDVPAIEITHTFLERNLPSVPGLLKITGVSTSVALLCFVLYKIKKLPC
Briefly: MAO-A inhibition, crude rat brain mitochondrial suspension, serotonin substrate, HPLC-ED. Type of series: biochemical. Particulars: 100 µM compound; serotonin 100 µM as substrate. The protocol:
The effects of the compounds on rat MAO-A activity were studied following a previously reported methodology, using a crude rat brain mitochondrial suspension as a source of enzyme. Serotonin (100 µM) was used as the selective substrate for MAO-A. This compound and its metabolite were detected by HPLC with electrochemical detection. As an exploratory evaluation, the percentage of MAO-A inhibition in the presence of 100 µM of the different compounds was determined, with the idea of evaluating in detail those compounds showing an inhibitory activity in the range of 70–100%.

In another series the target is T2, D2 receptor (Homo sapiens, UniProt P14416).
T2 construct: purchased Perkin-Elmer (Boston, MA, USA) RBHD2CM400UA; host or cells: CHO-K1 clonal cell line
The experiment in a line: D2 receptor competitive binding assay, [3H]-methylspiperone, membranes from CHO-K1 clonal cell line overexpressing D2 receptor. The settings on record: 0.5 nM [3H]-methylspiperone, 2 h at 27 °C; mean ± SEM of three experiments, each in triplicate. The protocol: To determine the binding of all compounds at D2 receptor, competitive binding assays were performed according to provider indications with some modifications. […] Radioactivity was counted as described before.

The target of another series is T3, SERT (Homo sapiens, UniProt P31645).
T3 construct: purchased Perkin-Elmer (Boston, MA, USA) RBHSTM400UA; host or cells: HEK-293 clonal cell line
The experiment in a line: SERT competitive binding assay, [3H]-paroxetine, membranes from HEK-293 clonal cell line overexpressing SERT. The protocol: To determine the binding of all compounds at SERT, competitive binding assays were performed according to previously reported procedures with some modifications. […] Control curve was performed with fluoxetine in the same experimental conditions. Non-specific binding was determined with 10 µM fluoxetine.
The IC50 and Ki values correspond to the results of three independent experiments, each in triplicate. All data are expressed as the mean ± SEM.

Where [1] appears, read: 2 nM [3H]-paroxetine, 1 h at 27 °C, mean ± SEM of three experiments, each in triplicate, read-out: Ki SERT.
The mark [2] stands for this setting: SERT, experimental values used for CoMFA/CoMSIA (Table S3), read-out: Exp. pKi (converted).

Read-outs that look alike come from different tables or passages of the source.

T3 sequence (P31645 whole entry): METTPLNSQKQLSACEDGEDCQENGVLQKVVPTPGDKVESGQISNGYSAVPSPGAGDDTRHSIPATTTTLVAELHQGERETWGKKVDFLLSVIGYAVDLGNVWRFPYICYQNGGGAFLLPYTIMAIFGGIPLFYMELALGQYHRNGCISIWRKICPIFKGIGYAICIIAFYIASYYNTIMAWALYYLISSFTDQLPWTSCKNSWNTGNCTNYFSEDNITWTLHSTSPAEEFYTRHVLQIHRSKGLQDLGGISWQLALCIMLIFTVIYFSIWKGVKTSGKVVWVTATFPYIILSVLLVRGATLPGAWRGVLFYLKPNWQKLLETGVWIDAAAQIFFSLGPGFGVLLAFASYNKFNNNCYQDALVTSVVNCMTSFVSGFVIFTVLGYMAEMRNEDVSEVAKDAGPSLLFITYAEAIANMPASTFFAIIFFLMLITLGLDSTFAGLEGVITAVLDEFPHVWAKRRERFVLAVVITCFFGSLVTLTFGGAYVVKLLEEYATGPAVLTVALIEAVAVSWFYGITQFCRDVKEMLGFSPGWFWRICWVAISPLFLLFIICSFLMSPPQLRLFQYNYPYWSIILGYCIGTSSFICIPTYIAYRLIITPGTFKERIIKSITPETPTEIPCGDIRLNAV
T2 sequence (P14416 whole entry): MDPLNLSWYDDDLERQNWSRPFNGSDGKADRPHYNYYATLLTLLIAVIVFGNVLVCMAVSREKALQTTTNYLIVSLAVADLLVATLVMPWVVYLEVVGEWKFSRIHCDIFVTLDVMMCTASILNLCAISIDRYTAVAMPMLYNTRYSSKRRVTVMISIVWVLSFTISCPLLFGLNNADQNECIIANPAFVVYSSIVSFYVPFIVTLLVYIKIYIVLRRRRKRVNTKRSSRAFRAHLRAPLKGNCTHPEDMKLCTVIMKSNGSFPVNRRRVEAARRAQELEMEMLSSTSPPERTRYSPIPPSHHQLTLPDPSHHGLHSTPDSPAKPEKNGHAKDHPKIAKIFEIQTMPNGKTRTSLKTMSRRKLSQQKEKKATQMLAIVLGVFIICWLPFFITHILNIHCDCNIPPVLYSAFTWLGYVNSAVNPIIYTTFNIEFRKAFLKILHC

A word on the inhibition: it is the drop in the measured response relative to a control, in per cent. The melting point is the temperature, or range, at which the solid turns liquid. `O=C(CN1CCN(CCCc2c[nH]c3ccc(Br)cc23)CC1)Nc1cc(F)ccc1C(=O)NCCN1CCOCC1` [Compound 13e, 4-Fluoro-2-(2-{4-[3-(5-bromo-1H-3-indolyl)-propyl]-1-piperazinyl}-acetylamino)-N-(2-morpholin-4-yl-ethyl) Benzamide]: the melting point fell in the range of 92.1 to 93.8 °C. Further, the inhibition at 100 µM on rat MAO-A amounted to 39%. On D2 receptor, this compound came in with a Ki of 5619 ± 31 nM. Besides, the Ki on SERT (setting [1]) was found to be 223 ± 16.4 nM.
The corresponding values for `O=C(CN1CCN(CCCc2c[nH]c3ccccc23)CC1)N1CCOc2cc(F)ccc21` [Compound 7b, 1-(7-Fluoro-2,3-dihydro-benzo[b][1,4]oxazin-4-yl)-2-{4-[3-(1H-3-indolyl)-propyl]-1-piperazinyl} ethanamide] are 124 to 125.3 °C, 43%, 4740 ± 131 nM and 181 ± 20 nM.
The corresponding values for `O=C(CN1CCN(CCCc2c[nH]c3ccccc23)CC1)N1CCOc2ccccc21` [Compound 7a, 1-(2,3-Dihydro-benzo[b][1,4]oxazin-4-yl)-2-{4-[3-(1H-3-indolyl)-propyl]-1-piperazinyl} ethanamide] are 124.3 to 125.8 °C, 27%, 4840 ± 68 nM and 307 ± 30.5 nM.
The corresponding values for `O=C(CN1CCN(CCCc2c[nH]c3ccc(Br)cc23)CC1)Nc1ccc(F)c(C(=O)NCCN2CCOCC2)c1` [Compound 13g, 2-Fluoro-5-(2-{4-[3-(5-bromo-1H-3-indolyl)-propyl]-1-piperazinyl}-acetylamino)-N-(2-morpholin-4-yl-ethyl) Benzamide] are 73.2 to 74.5 °C, 16%, 765 ± 16 nM and 12.6 ± 0.42 nM.
In the case of `O=C(CN1CCN(CCCc2c[nH]c3ccccc23)CC1)Nc1ccc(F)c(C(=O)NCCN2CCOCC2)c1` [Compound 13k, 2-Fluoro-5-(2-{4-[3-(1H-3-indolyl)-propyl]-1-piperazinyl}-acetylamino)-N-(2-morpholin-4-yl-ethyl) Benzamide], the melting point lay within 69.7 to 71.5 °C. At rat MAO-A, this compound came in with an inhibition at 100 µM of 34%. On D2 receptor, this compound gave a Ki of 4170 ± 335 nM. The Ki at SERT (setting [1]) worked out at 26.8 ± 0.91 nM.
The corresponding values for `O=C(CN1CCN(CCCc2c[nH]c3ccc(F)cc23)CC1)Nc1ccc(F)c(C(=O)NCCN2CCOCC2)c1` [Compound 13c, 2-Fluoro-5-(2-{4-[3-(5-fluor-1H-3-indolyl)-propyl]-1-piperazinyl}-acetylamino)-N-(2-morpholin-4-yl-ethyl) Benzamide] are 91.8 to 93.2 °C, 28%, 593 ± 30.2 nM and 6.83 ± 0.19 nM.
In turn, `O=C(CN1CCN(CCCc2c[nH]c3ccc(F)cc23)CC1)N1CCOc2ccc(Br)cc21` [Compound 7k, 1-(6-Bromo-2,3-dihydro-benzo[b][1,4]oxazin-4-yl)-2-{4-[3-(5-fluoro-1H-3-indolyl)-propyl]-1-piperazinyl} ethanamide] displayed a melting point of 102.8 to 103.9 °C. The compound further came in with an inhibition at 100 µM at rat MAO-A of 20%. Also, at D2 receptor, the Ki amounted to 1040 ± 232 nM. In addition, the Ki at SERT (setting [1]) was found to be 5.63 ± 0.82 nM. Moreover, on SERT (setting [2]), the Ki is 5.62 nM.
For `COc1ccc2c(c1)N(C(=O)CN1CCN(CCCc3c[nH]c4ccccc34)CC1)CCO2` [Compound 7f, 1-(6-Methoxy-2,3-dihydro-benzo[b][1,4]oxazin-4-yl)-2-{4-[3-(1H-3-indolyl)-propyl]-1-piperazinyl} ethanamide], the melting point lay in the range of 123.6 to 125.1 °C. At rat MAO-A, the inhibition at 100 µM was 58%. The Ki on D2 receptor amounted to 4410 ± 647 nM. Further, the Ki at SERT (setting [1]) was found to be 412 ± 57.9 nM.
On to `O=C(CN1CCN(CCCc2c[nH]c3ccc(F)cc23)CC1)N1CCOc2ccc(Cl)cc21` [Compound 7j, 1-(6-Chloro-2,3-dihydro-benzo[b][1,4]oxazin-4-yl)-2-{4-[3-(5-fluoro-1H-3-indolyl)-propyl]-1-piperazinyl} ethanamide], for which the melting point was 120.5 to 122.8 °C. The inhibition at 100 µM on rat MAO-A amounted to 20%. On D2 receptor, this compound registered a Ki of 902 ± 4 nM. Moreover, the Ki on SERT (setting [1]) is 12.3 ± 2.31 nM.
With `O=C(CN1CCN(CCCc2c[nH]c3ccc(F)cc23)CC1)N1CCOc2ccccc21` [Compound 7g, 1-(2,3-Dihydro-benzo[b][1,4]oxazin-4-yl)-2-{4-[3-(5-fluoro-1H-3-indolyl)-propyl]-1-piperazinyl} ethanamide], the melting point lay within 168.4 to 171.3 °C. Besides, at rat MAO-A, the inhibition at 100 µM stood at 41%. This compound also showed a Ki at D2 receptor of 2320 ± 64 nM. Besides, on SERT (setting [1]), the Ki was determined as 9.63 ± 0.31 nM.
Take `O=C(CN1CCN(CCCc2c[nH]c3ccc(Br)cc23)CC1)N1CCOc2ccc(F)cc21` [Compound 7o, 1-(6-Fluoro-2,3-dihydro-benzo[b][1,4]oxazin-4-yl)-2-{4-[3-(5-bromo-1H-3-indolyl)-propyl]-1-piperazinyl} ethanamide]: the melting point lay within 97.2 to 98.8 °C. At rat MAO-A, this compound showed an inhibition at 100 µM of 26%. On D2 receptor, the Ki is 1150 ± 227 nM. The Ki on SERT (setting [2]) was 34.9 nM.
Regarding `O=C(CN1CCN(CCCc2c[nH]c3ccccc23)CC1)N1CCOc2ccc(F)cc21` [Compound 7c, 1-(6-Fluoro-2,3-dihydro-benzo[b][1,4]oxazin-4-yl)-2-{4-[3-(1H-3-indolyl)-propyl]-1-piperazinyl} ethanamide], the melting point lay in the range of 123.8 to 125.1 °C. Further, on rat MAO-A, the inhibition at 100 µM was found to be 40%. Further, the Ki at D2 receptor came out at 2390 ± 163 nM. In addition, on SERT (setting [1]), the Ki turned out to be 68.8 ± 1.02 nM.
Taken in the same sequence, the figures for `O=C(CN1CCN(CCCc2c[nH]c3ccc(F)cc23)CC1)N1CCOc2ccc(F)cc21` [Compound 7i, 1-(6-Fluoro-2,3-dihydro-benzo[b][1,4]oxazin-4-yl)-2-{4-[3-(5-fluoro-1H-3-indolyl)-propyl]-1-piperazinyl} ethanamide] were 166.8 to 168.1 °C, 0%, 1680 ± 79 nM and 7.51 ± 0.12 nM.
The corresponding values for `O=C(CN1CCN(CCCc2c[nH]c3ccc(F)cc23)CC1)Nc1cc(C(=O)NCCN2CCOCC2)ccc1F` [Compound 13b, 4-Fluoro-3-(2-{4-[3-(5-fluor-1H-3-indolyl)-propyl]-1-piperazinyl}-acetylamino)-N-(2-morpholin-4-yl-ethyl) Benzamide] are 92.2 to 93.9 °C, 42%, 3100 ± 42 nM and 23.8 ± 0.46 nM.
The compound `O=C(CN1CCN(CCCc2c[nH]c3ccccc23)CC1)Nc1ccc(F)cc1C(=O)NCCN1CCOCC1` [Compound 13l, 5-Fluoro-2-(2-{4-[3-(1H-3-indolyl)-propyl]-1-piperazinyl}-acetylamino)-N-(2-morpholin-4-yl-ethyl) Benzamide] gave a melting point of 68.1 to 69.6 °C. For the same compound, on rat MAO-A, the inhibition at 100 µM came to 34%. On D2 receptor, this compound displayed a Ki of 2000 ± 34 nM. For the same compound, the Ki on SERT (setting [1]) is 52.2 ± 3.24 nM.
Taken in the same sequence, the figures for `O=C(CN1CCN(CCCc2c[nH]c3ccc(Br)cc23)CC1)Nc1cc(C(=O)NCCN2CCOCC2)ccc1F` [Compound 13f, 4-Fluoro-3-(2-{4-[3-(5-bromo-1H-3-indolyl)-propyl]-1-piperazinyl}-acetylamino)-N-(2-morpholin-4-yl-ethyl) Benzamide] were 85.2 to 86.8 °C, 39%, 1830 ± 33 nM and 58.8 ± 1.14 nM.
`O=C(CN1CCN(CCCc2c[nH]c3ccccc23)CC1)N1CCOc2ccc(Cl)cc21` [Compound 7d, 1-(6-Chloro-2,3-dihydro-benzo[b][1,4]oxazin-4-yl)-2-{4-[3-(1H-3-indolyl)-propyl]-1-piperazinyl} ethanamide]: the melting point was in the range of 135.3 to 136.1 °C. This compound registered an inhibition at 100 µM on rat MAO-A of 18%. At D2 receptor, this compound came in with a Ki of 1260 ± 182 nM. Besides, on SERT (setting [1]), the Ki was found to be 81.4 ± 4.97 nM.
